Source: patent US20260217706A1, “HETEROCYCLIC COMPOUNDS, PREPARATION METHOD THEREFOR AND USE THEREOF” (GUANGZHOU YUFAN NANTU BIOTECHNOLOGIES CO., LTD, priority 2023, published 2026)

biological target: CBL-B protein (Homo sapiens, UniProt Q13191); assay: CBL-B binding experiment (Streptavidin-Tb cryptate / Ligand L1 displacement); conditions: 8 nM CBL-B protein, 25° C., 60 minutes; Ki=Relative IC50/2
Protocol: The reaction system mainly includes 1× buffer, 20 mM HEPES pH 7.5, 150 mM NaCl, 0.01% Triton X-100, 0.5 mM TCEP, and 0.1% ug/ml BSA. The compound is continuously diluted with DMSO for 10 concentration points, and 150 nL is transferred to the experimental plate. The experimental reaction begins after adding 8 nM of CBL-B protein and the reaction is carried out at 25° C. for 60 minutes. […] After an additional 60 minutes of incubation at room temperature, the experimental plate is read using an EnVision plate. The luminescence signal values were converted to percentage inhibition rates. Inhibition %=(Sample value−Maximum value)/(Minimum value−Maximum value)×100. The minimum value refers to the measured value in the wells without CBL-B protein but with DMSO and Ligand, while the maximum value refers to the measured value in the wells with DMSO, CBL-B protein, and Ligand. The IC50 values are calculated by XLFit (version 5.3.1.3) in Excel. Equation: Y=Bottom+(Top−Bottom)/(1+(IC50/X)^HillSlope); Ki=Relative IC50/2.

CBL-B protein, sequence (Q13191 whole entry): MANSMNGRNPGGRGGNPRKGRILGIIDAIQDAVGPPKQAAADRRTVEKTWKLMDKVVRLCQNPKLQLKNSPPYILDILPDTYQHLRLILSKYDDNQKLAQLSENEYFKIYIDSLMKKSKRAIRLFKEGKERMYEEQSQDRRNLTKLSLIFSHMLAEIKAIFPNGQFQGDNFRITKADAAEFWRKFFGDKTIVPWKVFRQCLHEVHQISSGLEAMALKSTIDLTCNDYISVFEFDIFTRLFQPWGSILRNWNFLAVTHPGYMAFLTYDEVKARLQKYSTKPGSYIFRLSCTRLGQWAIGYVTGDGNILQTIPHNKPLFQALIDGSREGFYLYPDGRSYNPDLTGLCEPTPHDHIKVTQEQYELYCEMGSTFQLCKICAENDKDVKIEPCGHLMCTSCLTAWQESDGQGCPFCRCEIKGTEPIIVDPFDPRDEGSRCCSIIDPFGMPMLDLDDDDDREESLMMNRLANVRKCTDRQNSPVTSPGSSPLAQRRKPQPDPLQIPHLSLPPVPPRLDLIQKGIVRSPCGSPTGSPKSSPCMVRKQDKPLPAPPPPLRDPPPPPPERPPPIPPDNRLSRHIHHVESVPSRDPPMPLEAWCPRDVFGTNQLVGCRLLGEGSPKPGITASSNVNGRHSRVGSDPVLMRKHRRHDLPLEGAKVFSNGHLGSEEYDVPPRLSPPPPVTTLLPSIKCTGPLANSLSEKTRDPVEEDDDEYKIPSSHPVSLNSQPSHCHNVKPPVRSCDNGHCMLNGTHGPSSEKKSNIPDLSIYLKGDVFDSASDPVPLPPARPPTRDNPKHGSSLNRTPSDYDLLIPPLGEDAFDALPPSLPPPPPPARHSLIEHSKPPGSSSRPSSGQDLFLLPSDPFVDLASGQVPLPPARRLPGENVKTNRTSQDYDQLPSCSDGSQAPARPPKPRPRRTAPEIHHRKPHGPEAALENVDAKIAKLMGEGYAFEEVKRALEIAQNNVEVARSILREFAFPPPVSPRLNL

SMILES	Ki [nM]
C[C@@H](NCc1cc2c(C(F)(F)F)cn(-c3cccc(C4(c5nncn5C)CCC4)c3)c(=O)c2[nH]1)C(C)(C)C (racemic) [Compound T044, 6-[3-[1-(4-methyl-1,2,4-triazol-3-yl)cyclobutyl]phenyl]-2-[[[rac-(1R)-1,2,2-trimethylpropyl]amino]methyl]-4-(trifluoromethyl)-1H-pyrrolo[2,3-c]pyridin-7-one]	< 50
Cn1cnnc1C1(c2cccc(-n3cc(C(F)(F)F)c4cc(CN5CCCC(C(F)F)C5)[nH]c4c3=O)c2)CCC1 (racemic) [Compound T113, 6-[3-[1-(4-methyl-1,2,4-triazol-3-yl)cyclobutyl]phenyl]-2-[[rac-(3R)-3-(difluoromethyl)-1-piperidyl]methyl]-4-(trifluoromethyl)-1H-pyrrolo[2,3-c]pyridin-7-one]	< 50
C[C@H]1CCCN(Cc2cc3ccn(-c4cccc(C5(Cc6nncn6C)COC5)c4)c(=O)c3[nH]2)C1 [Compound T001, (S)-6-(3-(3-((4-methyl-4H-1,2,4-triazol-3-yl)methyl)oxetan-3-yl)phenyl)-2-((3-methylpiperidin-1-yl)methyl)-1,6-dihydro-7H-pyrrolo[2,3-c]pyridin-7-one]	< 50
Cn1cnnc1C1(c2cccc(-n3cc(C(F)(F)F)c4cc(CN5CC[C@@H](O)C5)[nH]c4c3=O)c2)CCC1 [Compound T015, 2-[[(3R)-3-hydroxypyrrolidin-1-yl]methyl]-6-[3-[1-(4-methyl-1,2,4-triazol-3-yl)cyclobutyl]phenyl]-4-(trifluoromethyl)-1H-pyrrolo[2,3-c]pyridin-7-one]	< 50
Cn1cnnc1C1(c2cccc(-n3cc(C(F)(F)F)c4cc(CN5C[C@H]6C[C@@H]5CO6)[nH]c4c3=O)c2)CCC1 [Compound T032, 6-[3-[1-(4-methyl-1,2,4-triazol-3-yl)cyclobutyl]phenyl]-2-[[(1R,4R)-2-oxa-5-azabicyclo[2.2.1]heptan-5-yl]methyl]-4-(trifluoromethyl)-1H-pyrrolo[2,3-c]pyridin-7-one]	< 50
C[C@H]1CCCN(Cc2cc3c(C4CC4)cn(-c4cccc([C@]5(Cc6nncn6C)C[C@@H](C)C5)c4)c(=O)c3[nH]2)C1 [Compound T036, 4-cyclopropyl-6-(3-((1r,3S)-3-methyl-1-((4-methyl-4H-1,2,4-triazol-3-yl)methyl)cyclobutyl)phenyl)-2-(((S)-3-methylpiperidin-1-yl)methyl)-1,6-dihydro-7H-pyrrolo[2,3-c]pyridin-7-one]	50 to 100
Cn1cnnc1C1(c2cccc(-n3cc(C(F)(F)F)c4cc(CN5CCC[C@@H](O)C5)[nH]c4c3=O)c2)CCC1 [Compound T039, 2-[[(3R)-3-hydroxy-1-piperidyl]methyl]-6-[3-[1-(4-methyl-1,2,4-triazol-3-yl)cyclobutyl]phenyl]-4-(trifluoromethyl)-1H-pyrrolo[2,3-c]pyridin-7-one]	< 50
Cn1cnnc1C1(c2cccc(-n3cc(C(F)(F)F)c4cc(CN5CCC[C@@H](F)C5)[nH]c4c3=O)c2)CCC1 [Compound T046, 2-[[(3R)-3-fluoro-1-piperidyl]methyl]-6-[3-[1-(4-methyl-1,2,4-triazol-3-yl)cyclobutyl]phenyl]-4-(trifluoromethyl)-1H-pyrrolo[2,3-c]pyridin-7-one]	< 50
Cn1cnnc1C1(c2cccc(-n3cc(C(F)(F)F)c4cc(CN5CCC[C@H](F)C5)[nH]c4c3=O)c2)CCC1 [Compound T048, 2-[[(3S)-3-fluoro-1-piperidyl]methyl]-6-[3-[1-(4-methyl-1,2,4-triazol-3-yl)cyclobutyl]phenyl]-4-(trifluoromethyl)-1H-pyrrolo[2,3-c]pyridin-7-one]	< 50
Cn1cnnc1C1(c2cccc(-n3cc(C(F)(F)F)c4cc(CNCC(F)(F)CO)[nH]c4c3=O)c2)CCC1 [Compound T050, 2-[[(2,2-difluoro-3-hydroxy-propyl)amino]methyl]-6-[3-[1-(4-methyl-1,2,4-triazol-3-yl)cyclobutyl]phenyl]-4-(trifluoromethyl)-1H-pyrrolo[2,3-c]pyridin-7-one]	< 50
Cn1cnnc1C1(c2cccc(-n3cc(C(F)(F)F)c4cc(CN5C6CCCC5CC6)[nH]c4c3=O)c2)CCC1 [Compound T052, 2-(8-azabicyclo[3.2.1]octan-8-ylmethyl)-6-[3-[1-(4-methyl-1,2,4-triazol-3-yl)cyclobutyl]phenyl]-4-(trifluoromethyl)-1H-pyrrolo[2,3-c]pyridin-7-one]	< 50
C[C@H]1CCCN(Cc2cc3c(C(F)(F)F)cn(-c4cccc(C5(Cc6nncn6C)COC5)c4)c(=O)c3[nH]2)C1 [Compound T061, 2-[[(3S)-3-methyl-1-piperidyl]methyl]-6-[3-[3-[(4-methyl-1,2,4-triazol-3-yl)methyl]oxetan-3-yl]phenyl]-4-(trifluoromethyl)-1H-pyrrolo[2,3-c]pyridin-7-one]	< 50
Cn1cnnc1C1(c2cccc(-n3cc(C(F)(F)F)c4cc(CN5CCC[C@](C)(O)C5)[nH]c4c3=O)c2)CCC1 [Compound T064, (S)-2-((3-hydroxy-3-methylpiperidin-1-yl)methyl)-6-(3-(1-(4-methyl-4H-1,2,4-triazol-3-yl)cyclobutyl)phenyl)-4-(trifluoromethyl)-1,6-dihydro-7H-pyrrolo[2,3-c]pyridin-7-one]	< 50

Next, values leading:

Ki [nM]	SMILES
< 50	Cc1cn(-c2cccc(C3(Cc4nncn4C)COC3)c2)c(=O)c2[nH]c(CN3CCC[C@H](C)C3)cc12 [Compound T003, 4-methyl-2-[[(3S)-3-methyl-1-piperidyl]methyl]-6-[3-[3-[(4-methyl-1,2,4-triazol-3-yl)methyl]oxetan-3-yl]phenyl]-1H-pyrrolo[2,3-c]pyridin-7-one]
< 50	C=Cc1cn(-c2cccc([C@]3(c4nncn4C)C[C@@H](C)C3)c2)c(=O)c2[nH]c(CN3CCC[C@H](C)C3)cc12 [Compound T004, 6-(3-((1s,3R)-3-methyl-1-(4-methyl-4H-1,2,4-triazol-3-yl)cyclobutyl)phenyl)-2-(((S)-3-methylpiperidin-1-yl)methyl)-4-vinyl-1,6-dihydro-7H-pyrrolo[2,3-c]pyridin-7-one]
< 50	Cn1cnnc1CC1(c2cccc(-n3cc(C4CC4)c4cc(CN5CCCCC5)[nH]c4c3=O)c2)COC1 [Compound T006, 4-cyclopropyl-6-[3-[3-[(4-methyl-1,2,4-triazol-3-yl)methyl]oxetan-3-yl]phenyl]-2-(1-piperidylmethyl)-1H-pyrrolo[2,3-c]pyridin-7-one]
< 50	C[C@H]1CCCN(Cc2cc3c(C4CC4)cn(-c4cccc([C@H](c5nncn5C)C5CCC5)c4)c(=O)c3[nH]2)C1 [Compound T012, 6-(3-((R)-cyclobutyl(4-methyl-4H-1,2,4-triazol-3-yl)methyl)phenyl)-4-cyclopropyl-2-(((S)-3-methylpiperidin-1-yl)methyl)-1,6-dihydro-7H-pyrrolo[2,3-c]pyridin-7-one]
< 50	Cn1cnnc1C1(c2cccc(-n3cc(C(F)(F)F)c4cc(CN5CC[C@H](O)C5)[nH]c4c3=O)c2)CCC1 [Compound T016, 2-[[(3S)-3-hydroxypyrrolidin-1-yl]methyl]-6-[3-[1-(4-methyl-1,2,4-triazol-3-yl)cyclobutyl]phenyl]-4-(trifluoromethyl)-1H-pyrrolo[2,3-c]pyridin-7-one]
< 50	CC(C)c1cn(-c2cccc(C3(Cc4nncn4C)COC3)c2)c(=O)c2[nH]c(CN3CCC[C@H](C)C3)cc12 [Compound T022, 4-isopropyl-2-[[(3S)-3-methyl-1-piperidyl]methyl]-6-[3-[3-[(4-methyl-1,2,4-triazol-3-yl)methyl]oxetan-3-yl]phenyl]-1H-pyrrolo[2,3-c]pyridin-7-one]
< 50	Cn1cnnc1C1(c2cccc(-n3cc(C(F)(F)F)c4cc(CN5C[C@@H]6C[C@H]5CO6)[nH]c4c3=O)c2)CCC1 [Compound T031, 6-[3-[1-(4-methyl-1,2,4-triazol-3-yl)cyclobutyl]phenyl]-2-[[(1 S,4S)-2-oxa-5-azabicyclo [2.2.1]heptan-5-yl]methyl]-4-(trifluoromethyl)-1H-pyrrolo[2,3-c]pyridin-7-one]
< 50	Cn1cnnc1C1(c2cccc(-n3cc(C(F)(F)F)c4cc(CN5C[C@@H](F)[C@@H](F)C5)[nH]c4c3=O)c2)CCC1 [Compound T049, 2-[[(3R,4S)-3,4-difluoropyrrolidin-1-yl]methyl]-6-[3-[1-(4-methyl-1,2,4-triazol-3-yl)cyclobutyl]phenyl]-4-(trifluoromethyl)-1H-pyrrolo[2,3-c]pyridin-7-one]
< 50	Cn1cnnc1C1(c2cccc(-n3cc(C(F)(F)F)c4cc(CN5CCC6(CC5)CC6)[nH]c4c3=O)c2)CCC1 [Compound T051, 2-(6-azaspiro[2.5]octan-6-ylmethyl)-6-[3-[1-(4-methyl-1,2,4-triazol-3-yl)cyclobutyl]phenyl]-4-(trifluoromethyl)-1H-pyrrolo[2,3-c]pyridin-7-one]
< 50	CN(Cc1cc2c(C(F)(F)F)cn(-c3cccc(C4(c5nncn5C)CCC4)c3)c(=O)c2[nH]1)CC(F)(F)F [Compound T057, 2-((methyl(2,2,2-trifluoroethyl)amino)methyl)-6-(3-(1-(4-methyl-4H-1,2,4-triazol-3-yl)cyclobutyl)phenyl)-4-(trifluoromethyl)-1,6-dihydro-7H-pyrrolo[2,3-c]pyridin-7-one]
< 50	C[C@H]1CCCN(Cc2cc3c(C(F)(F)F)cn(-c4cccc([C@@H](c5nncn5C)C5CCC5)c4)c(=O)c3[nH]2)C1 [Compound T059, 6-(3-((S)-cyclobutyl (4-methyl-4H-1,2,4-triazol-3-yl)methyl)phenyl)-2-(((S)-3-methylpiperidin-1-yl)methyl)-4-(trifluoromethyl)-1,6-dihydro-7H-pyrrolo[2,3-c]pyridin-7-one]
